The values below come from paper PMC9370031, “Free Linoleic Acid and Oleic Acid Reduce Fat Digestion and Absorption In Vivo as Potent Pancreatic Lipase Inhibitors Derived from Sesame Meal” (Molecules, 2022).

The structures appear in SMILES notation. Read-outs that look alike come from different tables or passages of the source.

The experiment has as its target T1, porcine pancreatic lipase (Sus scrofa, UniProt P00591).
T1 construct: gene PNLIP
T1 sequence (P00591 1-450): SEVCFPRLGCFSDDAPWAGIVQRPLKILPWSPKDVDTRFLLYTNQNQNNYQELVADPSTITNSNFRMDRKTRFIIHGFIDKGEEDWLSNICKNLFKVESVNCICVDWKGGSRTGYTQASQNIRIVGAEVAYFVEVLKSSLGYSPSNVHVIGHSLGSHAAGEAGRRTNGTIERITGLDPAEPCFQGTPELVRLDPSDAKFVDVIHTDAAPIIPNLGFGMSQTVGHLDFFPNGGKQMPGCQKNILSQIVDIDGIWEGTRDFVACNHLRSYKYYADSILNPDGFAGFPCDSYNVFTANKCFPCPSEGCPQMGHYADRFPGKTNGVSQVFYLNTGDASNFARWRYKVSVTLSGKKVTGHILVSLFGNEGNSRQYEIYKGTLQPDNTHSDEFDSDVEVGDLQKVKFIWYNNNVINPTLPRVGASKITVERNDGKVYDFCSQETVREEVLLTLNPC
Kind of experiment: colorimetric lipase activity assay (Lipase Kit S, BLAB/DTNB, […] nm) with porcine pancreas lipase Type II. In kind it is biochemical.

Usually IC50 stands for the concentration that inhibits the measured activity by half. The compound `CCCCC/C=C\C/C=C\CCCCCCCC(=O)O` [linoleic acid] had an IC50 of 82.4 µM.

For the compound `CCCCCCCC/C=C\CCCCCCCC(=O)O` [oleic acid], under “read-out: IC50”, the IC50 amounted to 41.4 µM.
